In article PMC7190660, “Standardised comparison of limonene-derived monoterpenes identifies structural determinants of anti-inflammatory activity” (Scientific Reports, 2020):
“And” between values parts separate entries of the source, which are not always exact repeats. Equal values may be shown once.

Tests used:
[1] = system: LPS-induced NO production in Raw 264.7 macrophages; test: Primary screening: LPS-induced NO production (nitrite, Griess reaction) in Raw 264.7 macrophages; format: cell-based, mouse; details: for IC50: Mus musculus, RAW264.7, Raw 264.7 cell line; for Decrease (inhibition) of LPS-induced NO production: at the highest concentration tested; for % inhibition of LPS-induced NO production: at the highest non-cytotoxic concentration tested, nitrite in supernatants; for Effect on LPS-induced NO production / anti-inflammatory activity (in words): non-cytotoxic concentrations
Method: (§1) Raw 264.7 cells were plated at a density of 3 × 10^5 cells/mL and left to stabilize for up to 24 h.
This vehicle was used as control. Lipopolysaccharides from Escherichia coli 026:B6 (LPS; Sigma-Aldrich Co.) were dissolved in phosphate buffered saline (PBS). Recombinant human interleukin-1β (IL-1β; Peprotech, Rocky Hill, NJ, USA) was dissolved in PBS containing 0.1% Bovine Serum Albumin.
NO production was measured as the amount of nitrite accumulated in the culture supernatants using the Griess reaction which is based in the reaction of nitrite with sulfanilamide under acidic conditions, yielding a diazonium ion that couples to N-(1-napthtyl)ethylenediamine dihydrochloride to form a water-soluble red-violet azo dye that absorbs at 550 nm[51]. Briefly, equal volumes of culture supernatants and reagents [equal volumes of 1% (w/v) sulphanilamide in 5% (v/v) phosphoric acid and 0.1% (w/v) N-(1-napthtyl)ethylenediamine dihydrochloride] were mixed and incubated for 10 min, at room temperature, in the dark. The concentration of nitrite accumulated in the culture supernatants was calculated by interpolation of the absorbance of each sample, read in Biotek Synergy HT plate reader (Biotek), in a standard curve of sodium nitrite.

[2] = system: Raw 264.7 cells; test: Cytotoxicity by resazurin reduction assay in Raw 264.7 cells; format: cell-based, mouse; details: viability not decreased by more than 30% relative to LPS alone (ISO 10993-5), LPS 1 µg/mL 18 h
Method: Various concentrations of the test compounds, in the absence or presence of LPS, were first evaluated for cytotoxicity using the resazurin reduction assay[26]
as §1
Resazurin is a redox dye used as an indicator of cellular metabolic activity for various applications, namely cell viability, proliferation and toxicity. The assay is based on the intracellular reduction of the non-fluorescent resazurin to resorufin (a fluorescent and pink coloured compound) by mitochondrial or microsomal enzymes that use NADH or NADPH as electron sources. Since only metabolically active cells can reduce the dye, the increase in fluorescence or absorbance is directly proportional to the number of viable cells[26],[50].
To select non-cytotoxic concentrations of the test compounds, the resazurin solution was added to each well to a final concentration of 50 µM, 90 min before the end of the treatment period indicated in the figure legends. Then, absorbances at 570 nm and 620 nm (reference wavelength) were read in a Biotek Synergy HT plate reader (Biotek, Winooski, VT, USA).

[3] = system: NOS2; test: LPS-induced NOS2 mRNA (qRT-PCR) and protein (western blot) in Raw 264.7; format: cell-based, mouse; details: 1 h pre-treatment, Bay 11-7082 5 μM
Method: Macrophage cultures were treated with 1 µg/mL LPS, for 6 h (a) or 18 h (b), following pre-treatment for 1 h with 666 µM of each test compound (a) or with the concentrations indicated in (b). […] Control cells (Ctrl) were treated with the vehicle (0.1% DMSO) in the absence of LPS. Each column represents the mean ± SEM of four independent experiments. The blots shown are representative of, at least, three independent experiments and are cropped for clarity and conciseness.
Total RNA extraction and qRT-PCR were performed as described before[52]. Briefly, total RNA was extracted using the NZYol (NZYTECH, Lisbon, Portugal) and quantified in a NanoDrop ND-1000 spectrophotometer at 260 nm. RNA purity was assessed by analysis of 260/230 and 260/280 absorption ratios. The cDNA was reverse-transcribed using NZY First Strand cDNA Synthesis Kit (NZYTECH), beginning with 2 µg of total RNA. qRT-PCR was performed, in duplicate for each sample, using NZYSpeedy qPCR Green Master Mix (2×) (NZYTECH) on CFX96 Real-Time PCR Detection System (Bio-Rad, Hercules, CA, USA).
Gene expression changes were analysed using the built-in CFX Manager software which enables the analysis of the results by the Pfaffl method, a variation of the ΔΔCT method corrected for gene-specific efficiencies[53]. The results were normalized using Hprt1 as housekeeping gene.
Total cell extracts were prepared and western blot was performed as described before[54]. Briefly, total (25 µg for Raw 264.7 cell line and 20 µg for human chondrocytes) proteins were separated by SDS-PAGE under reducing conditions and electrotransferred onto PVDF membranes. […] Immune complexes were detected with Enhanced ChemiFluorescence reagent (GE Healthcare) in the imaging system Thyphoon FLA 9000 (GE Healthcare). The membranes were reprobed with a mouse monoclonal anti-β-Tubulin I antibody (Sigma-Aldrich Co.), diluted at 1:20000, as a loading control, for 1 h at room temperature. Image analysis was performed with TotalLab TL120 software (Nonlinear Dynamics Ltd).

[4] = system: human chondrocytes; test: IL-1β-induced NOS2 protein, NO production and pro-IL-1β protein in primary human chondrocytes; format: cell-based; details: IL-1β 10 ng/mL 24 h, carvone 666 or 1331 µM, Bay 11-7082 5 µM
Method: The cells were treated with 10 ng/mL IL-1β for 24 h (a, b, c and d), following pre-treatment for 1 h with 666 or 1331 µM of (S)-(+)-carvone (4). As a positive control, the cells were similarly treated with 5 μM Bay 11-7082 (b and c). Control cells (Ctrl) were treated with the vehicle (0.1% DMSO) in the absence of IL-1β. Each column represents the mean ± SEM of, at least, three independent experiments. The blots shown are representative of, at least, three independent experiments and are cropped for clarity and conciseness.
Briefly, cartilage shavings underwent sequential digestion with Pronase (Roche, Indianapolis, IN, USA) and collagenase A (Roche, Indianapolis, IN, USA). To avoid chondrocyte dedifferentiation, non-proliferating monolayer cultures were setup by plating 1× 10^6 chondrocytes/mL in HAM: F12 medium containing 3% antibiotics and 5% FBS and allowed to recover for 24 h at 37 °C in a humidified atmosphere with 5% CO2. Prior to any treatments, chondrocytes were serum-starved overnight and thereafter maintained in culture medium without FBS.
This vehicle was used as control. […] Recombinant human interleukin-1β (IL-1β; Peprotech, Rocky Hill, NJ, USA) was dissolved in PBS containing 0.1% Bovine Serum Albumin.
Total cell extracts were prepared and western blot was performed as described before[54]. […] Immune complexes were detected with Enhanced ChemiFluorescence reagent (GE Healthcare) in the imaging system Thyphoon FLA 9000 (GE Healthcare). The membranes were reprobed with a mouse monoclonal anti-β-Tubulin I antibody (Sigma-Aldrich Co.), diluted at 1:20000, as a loading control, for 1 h at room temperature. Image analysis was performed with TotalLab TL120 software (Nonlinear Dynamics Ltd).

Row | IC50 [1] | Compound | Decrease (inhibition) of LPS-induced NO production ([1]; Raw 264.7) | % inhibition of LPS-induced NO production ([1]; Raw 264.7) | Highest non-cytotoxic concentration tested [2] | Effect on LPS-induced NO production / anti-inflammatory activity (in words) ([1]; Raw 264.7) | also measured
1 | 1.47 mM and 224 µg/mL | C=C(C)[C@@H]1CCC(C)C(=O)C1 (single isomer, unassigned; (+)) [(+)-dihydrocarvone (7), (+)-dihydrocarvone] | greater than 30% | 73.57 ± 2.81 % ± SEM | 2628 µM and 400 µg/mL |  | 
2 | 2 mM and 304 µg/mL | C=C(C)[C@@H]1CC=C(C)C(O)C1 (single isomer, unassigned; (-)) [(−)-carveol (6), (−)-carveol] | greater than 30% | 52.30 ± 5.54 % ± SEM | 2628 µM and 400 µg/mL |  | 
3 |  | C=C(C)[C@@H]1CC[C@](C)(O)[C@@H](O)C1 [(1 S,2 S,4 R)-(+)-limonene-1,2-diol (3), (1 S,2 S,4 R)-(+)-limonene-1,2-diol] | less than 20% | 13.90 ± 2.03 % ± SEM | 2349 µM and 400 µg/mL | inactive | 
4 | 532 µM and 82.1 µg/mL | C=C(C)[C@H]1CC[C@H](C)[C@@H](O)C1 [(+)-dihydrocarveol (8), (+)-dihydrocarveol] | greater than 30% | 71.03 ± 2.28 % ± SEM | 1297 µM and 200 µg/mL |  | 
5 |  | C=C(C)[C@H]1CC[C@H](C)C[C@@H]1O [(+)-isopulegol (10), (+)-isopulegol] |  | −18.47 ± 5.65 % ± SEM | 2593 µM and 400 µg/mL | inactive | Effect on LPS-induced NO production / anti-inflammatory activity (in words) ([1]; Raw 264.7, listed as 10): no effect
6 | 842 µM and 142 µg/mL | CC1=CC[C@@H](C(C)(C)O)CC1=O [(R)-8-hydroxycarvotanacetone (21), (R)-5-(2-hydroxypropan-2-yl)-2-methylcyclohex-2-en-1-one] | greater than 30% | 76.25 ± 1.97 % ± SEM | 2378 µM and 400 µg/mL | significant activity | 
7 |  | C=C(C)[C@H]1CC=C(C)CC1 [(R)-(+)-limonene (2), (R)-(+)-limonene] |  | −1.80 ± 0.55 % ± SEM |  | inactive | Effect on LPS-induced NO production / anti-inflammatory activity (in words) ([1]; Raw 264.7, listed as 2): no effect
8 |  | CC(C)=C1CC[C@@H](C)CC1=O [(R)-(+)-pulegone (12), (R)-(+)-pulegone] |  | 7.80 ± 2.98 % ± SEM | 1314 µM and 200 µg/mL | inactive | Effect on LPS-induced NO production / anti-inflammatory activity (in words) ([1]; Raw 264.7, listed as 12): no effect
9 | 762 µM and 116 µg/mL | CC1=CC[C@H](C(C)(C)O)CC1=O [(S)-8-hydroxycarvotanacetone (20), (S)-5-(2-hydroxypropan-2-yl)-2-methylcyclohex-2-en-1-one] | greater than 30% | 78.43 ± 1.60 % ± SEM | 2378 µM and 400 µg/mL | significant activity | 
10 |  | C=C(C)[C@@H]1CC=C(C)CC1 [(S)-(−)-limonene (1), (S)-(−)-limonene] |  | 11.08 ± 4.65 % ± SEM |  | inactive | Effect on LPS-induced NO production / anti-inflammatory activity (in words) ([1]; Raw 264.7, listed as 1): no effect
11 |  | CC(C)=C1CC[C@H](C)CC1=O [(S)-(−)-pulegone (13), (S)-(−)-pulegone] |  | 35.60 ± 4.86 % ± SEM | 2628 µM and 400 µg/mL | weak activity | 
12 | 2.14 mM and 330 µg/mL | C=C(C)[C@@H]1CC[C@@H](C)[C@H](O)C1 [(−)-dihydrocarveol (9), (−)-dihydrocarveol] | greater than 30% | 62.03 ± 8.62 % ± SEM | 2593 µM and 400 µg/mL |  | 
13 |  | C=C(C)[C@@H]1CC[C@@H](C)C[C@H]1O [(−)-isopulegol (11), (−)-isopulegol] |  | −12.63 ± 1.30 % ± SEM | 2593 µM and 400 µg/mL | inactive | Effect on LPS-induced NO production / anti-inflammatory activity (in words) ([1]; Raw 264.7, listed as 11): no effect
14 |  | CC(C)[C@@H]1CC[C@@H](C)C[C@H]1O [(−)-menthol (15), (−)-menthol] |  | −6.90 ± 1.24 % ± SEM | 2560 µM and 400 µg/mL | no effect | 
15 |  | CC(C)[C@@H]1CC[C@@H](C)CC1=O [(−)-menthone (14), (−)-menthone] |  | −9.88 ± 2.85 % ± SEM | 1297 µM and 200 µg/mL | no effect | 
16 |  | Cc1ccc(S(=O)(=O)/C=C/C#N)cc1 [Bay 11-7082, reference compound] |  |  |  |  | LPS-induced NOS2 mRNA levels ([3]; LPS 1 µg/mL 6 h, test compounds 666 µM): decreased; LPS-induced NOS2 protein levels ([3]; LPS 1 µg/mL 18 h): decreased; IL-1β-induced NO production [4]: significantly decreased; IL-1β-induced NOS2 protein levels [4]: significantly decreased; NO production relative to cells treated with LPS alone ([1]; pre-treatment with 5 μM, Raw 264.7): 48.1 ± 5.2%
17 |  | Cc1ccc(C(C)C)cc1O [carvacrol (18), carvacrol] | less than 20% | 10.78 ± 1.34 % ± SEM | 33 µM and 5 µg/mL | almost no activity | 
18 |  | Cc1ccc(C(C)C)cc1 [p-cymene (17), p-cymene] | less than 20% | 8.50 ± 5.53 % ± SEM | 37 µM and 5 µg/mL | showed no activity | 
19 |  | Cc1ccc(C(C)C)c(O)c1 [thymol (19), thymol] | less than 20% | 8.93 ± 1.91 % ± SEM | 83 µM and 12.5 µg/mL | showed no activity | 
